Assay results from patent US20150291514A1, “N-Aminosulfonyl Benzamides” (Pfizer Limited, priority 2012, published 2015).
Where a name gives a salt, the structure may show the parent alone.

Target: T1, Nav1.7 (or SCN9A) channel (Homo sapiens, UniProt Q15858)
T1 construct: expressed in transfected cells
Assay: Nav1.7 (hSCN9A) PatchXpress electrophysiology assay
Assay type: cell-based
Conditions: estimated IC50 from single point electrophysiology data; PatchXpress platform; HEK cells expressing hSCN9A, held at V1/2 of inactivation; read-out: Nav1.7 EIC50
Protocol: The ability of the compounds of formula (I) to block the Nav1.7 (or SCN9A) channel were measured using the assay described below.
Human Embryonic Kidney (HEK) cells were transfected with an hSCN9A construct using lipofectamine reagent (Invitrogen), using standard techniques. Cells stably expressing the hSCN9A constructs were identified by their resistance to G-418 (400 μg/ml). Clones were screened for expression using the whole-cell voltage-clamp technique.
HEK cells stably transfected with hSCN9A were maintained in DMEM medium supplemented with 10% heat-inactivated fetal bovine serum and 400 μg/ml G-418 in an incubator at 37° C. with a humidified atmosphere of 10% CO2. For HTS, cells were harvested from flasks by trypsinization and replated in an appropriate multi-well plate (typically 96 or 384 wells/plate) such that confluence would be achieved within 24 hours of plating. For electrophysiological studies, cells were removed from the culture flask by brief trypsinization and re-plated at low density onto glass cover slips. Cells were typically used for electrophysiological experiments within 24 to 72 hours after plating.
Cover slips containing HEK cells expressing hSCN9A were placed in a bath on the stage of an inverted microscope and perfused (approximately 1 ml/minutes) with extracellular solution of the following composition: 138 mM NaCl, 2 mM CaCl2, 5.4 mM KCl, 1mM MgCl2, 10 mM glucose, and 10 mM HEPES, pH 7.4, with NaOH. […] The osmolarity of the extracellular and intracellular solutions was 300 mOsm/kg and 295 mOsm/kg, respectively. All recordings were made at room temperature (22-24° C.) using AXOPATCH 200B amplifiers and PCLAMP software (Axon Instruments, Burlingame, Calif.).
hSCN9A currents in HEK cells were measured using the whole-cell configuration of the patch-clamp technique (Hamill et al., 1981). Uncompensated series resistance was typically 2 to 5 mega ohms and >85% series resistance compensation was routinely achieved. As a result, voltage errors were negligible and no correction was applied. Current records were acquired at 20 to 50 KHz and filtered at 5 to 10 KHz.
HEK cells stably transfected with hSCN9A were viewed under Hoffman contrast optics and placed in front of an array of flow pipes emitting either control or compound-containing extracellular solutions. All compounds were dissolved in dimethyl sulfoxide to make 10 mM stock solutions, which were then diluted into extracellular solution to attain the final concentrations desired. […] The voltage-dependence of inactivation was determined by applying a series of depolarizing prepulses (8 sec long in 10 mV increments) from a negative holding potential. The voltage was then immediately stepped to 0 mV to assess the magnitude of the sodium current. Currents elicited at 0 mV were plotted as a function of prepulse potential to allow estimation of the voltage at which 50% of the channels were inactivated (midpoint of inactivation or V1/2). Compounds were tested for their ability to inhibit hSCN9A sodium channels by activating the channel with a 20 msec voltage step to 0 mV following an 8 second conditioning prepulse to the empirically determined V1/2. Compound effect (% inhibition) was determined by difference in current amplitude before and after application of test compounds. For ease of comparison, “estimated IC-50” (EIC50) values were calculated from single point electrophysiology data by the following equation, (tested concentration, uM)×(100-% inhibition/% inhibition). Inhibition values <20% and >80% were excluded from the calculation.
Electrophysiological assays were conducted with PatchXpress 7000 hardware and associated software (Molecular Devices Corp). All assay buffers and solutions were identical to those used in conventional whole-cell voltage clamp experiments described above. hSCN9A cells were grown as above to 50%-80% confluency and harvested by trypsinization. […]

T1 sequence (Q15858 whole entry): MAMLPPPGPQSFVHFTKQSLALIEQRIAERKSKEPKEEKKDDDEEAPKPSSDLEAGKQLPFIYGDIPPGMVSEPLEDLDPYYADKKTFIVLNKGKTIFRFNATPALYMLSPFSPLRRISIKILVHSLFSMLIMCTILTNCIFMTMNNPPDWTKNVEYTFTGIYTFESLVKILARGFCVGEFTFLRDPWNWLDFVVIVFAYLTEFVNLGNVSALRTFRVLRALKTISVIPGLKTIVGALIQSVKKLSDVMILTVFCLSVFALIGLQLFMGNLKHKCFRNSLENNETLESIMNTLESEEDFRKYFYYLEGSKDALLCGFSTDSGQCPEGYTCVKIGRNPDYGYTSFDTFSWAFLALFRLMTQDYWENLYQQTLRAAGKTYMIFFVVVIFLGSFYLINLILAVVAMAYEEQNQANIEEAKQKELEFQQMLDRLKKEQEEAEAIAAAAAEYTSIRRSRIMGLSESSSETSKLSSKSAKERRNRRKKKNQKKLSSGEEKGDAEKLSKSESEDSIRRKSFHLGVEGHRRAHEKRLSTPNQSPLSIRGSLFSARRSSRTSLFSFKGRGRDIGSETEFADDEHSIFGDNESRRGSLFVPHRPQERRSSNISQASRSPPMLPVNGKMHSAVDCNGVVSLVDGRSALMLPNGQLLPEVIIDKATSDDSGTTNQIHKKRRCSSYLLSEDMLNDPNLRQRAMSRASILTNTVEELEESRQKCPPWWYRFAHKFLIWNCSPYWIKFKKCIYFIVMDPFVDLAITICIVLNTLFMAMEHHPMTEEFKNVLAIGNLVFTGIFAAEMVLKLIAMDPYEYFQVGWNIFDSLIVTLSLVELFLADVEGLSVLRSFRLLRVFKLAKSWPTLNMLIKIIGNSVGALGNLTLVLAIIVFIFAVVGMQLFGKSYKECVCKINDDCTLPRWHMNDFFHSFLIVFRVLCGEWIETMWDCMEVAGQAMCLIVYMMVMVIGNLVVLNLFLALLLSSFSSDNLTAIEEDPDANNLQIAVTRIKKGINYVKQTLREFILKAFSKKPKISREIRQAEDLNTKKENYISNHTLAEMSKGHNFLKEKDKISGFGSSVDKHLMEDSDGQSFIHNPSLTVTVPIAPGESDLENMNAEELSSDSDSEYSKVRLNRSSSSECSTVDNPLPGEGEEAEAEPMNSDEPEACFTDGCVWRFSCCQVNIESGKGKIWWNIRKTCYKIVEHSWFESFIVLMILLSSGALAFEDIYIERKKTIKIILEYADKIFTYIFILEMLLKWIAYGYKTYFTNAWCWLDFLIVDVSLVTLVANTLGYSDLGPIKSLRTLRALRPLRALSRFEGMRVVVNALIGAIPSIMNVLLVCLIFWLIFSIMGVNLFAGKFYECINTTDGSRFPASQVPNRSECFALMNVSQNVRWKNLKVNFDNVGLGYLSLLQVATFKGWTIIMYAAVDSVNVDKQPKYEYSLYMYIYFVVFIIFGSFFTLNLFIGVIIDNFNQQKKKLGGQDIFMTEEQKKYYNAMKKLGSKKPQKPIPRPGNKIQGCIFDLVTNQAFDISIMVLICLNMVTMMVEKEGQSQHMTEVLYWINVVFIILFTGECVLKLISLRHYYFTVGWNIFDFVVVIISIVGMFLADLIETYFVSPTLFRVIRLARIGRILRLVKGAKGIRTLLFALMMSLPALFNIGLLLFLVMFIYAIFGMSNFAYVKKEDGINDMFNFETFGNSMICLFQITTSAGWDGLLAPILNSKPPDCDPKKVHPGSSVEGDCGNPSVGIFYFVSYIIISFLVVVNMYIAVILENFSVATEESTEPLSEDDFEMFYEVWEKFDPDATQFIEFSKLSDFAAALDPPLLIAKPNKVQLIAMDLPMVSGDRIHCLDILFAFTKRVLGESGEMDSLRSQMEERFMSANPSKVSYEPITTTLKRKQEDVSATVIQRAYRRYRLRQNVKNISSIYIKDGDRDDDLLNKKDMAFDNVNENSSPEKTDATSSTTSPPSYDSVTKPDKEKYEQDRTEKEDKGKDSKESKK

| IC50 [nM] | SMILES |
| --- | --- |
| 6600 | CNS(=O)(=O)NC(=O)c1cc(F)c(Oc2cnc(OC(C)C)c(Cl)c2)cc1F [Example 31, 4-[(5-chloro-6-isopropoxypyridin-3-yl)oxy]-N-[(methylamino)sulfonyl]-2,5-difluorobenzamide] |
| 290 | CN(C)S(=O)(=O)NC(=O)c1cc(F)c(Oc2cnc(OCC3CC3)c(Cl)c2)cc1F [Example 32, 4-[(5-chloro-6-(cyclopropylmethoxy)pyridin-3-yl)oxy]-N-[(dimethylamino)sulfonyl]-2,5-difluorobenzamide] |
| 500 | CN(C)S(=O)(=O)NC(=O)c1cc(F)c(Oc2cnc(OCC(C)(C)F)c(Cl)c2)cc1F [Example 33, 4-[(5-chloro-6-(2-fluoro-2-methylpropoxy)pyridin-3-yl)oxy]-N-[(dimethylamino)sulfonyl]-2,5-difluorobenzamide diethylamine salt] |
| 590 | CN(C)S(=O)(=O)NC(=O)c1cc(F)c(Oc2cnc(OCC(F)(F)F)c(Cl)c2)cc1F [Example 34, 4-[(5-chloro-6-(2,2,2-trifluoroethoxy)pyridin-3-yl)oxy]-N-[(dimethylamino)sulfonyl]-2,5-difluorobenzamide diethylamine salt] |
| 2500 | CN(C)S(=O)(=O)NC(=O)c1cc(F)c(Oc2cc(C(F)(F)F)c(Cl)cn2)cc1F [Example 35, 4-((5-chloro-4-(trifluoromethyl)pyridin-2-yl)oxy)-N-(N,N-dimethylsulfamoyl)-2,5-difluorobenzamide] |
| 660 | CC(Oc1ncc(Oc2cc(F)c(C(=O)NS(=O)(=O)N(C)C)cc2F)cc1Cl)C(F)(F)F (stereo not shown) [Example 36, 4-((5-chloro-6-((1,1,1-trifluoropropan-2-yl)oxy)pyridin-3-yl)oxy)-N-[(dimethylamino)sulfonyl]-2,5-difluorobenzamide] |
| 470 | CN(C)S(=O)(=O)NC(=O)c1cc(F)c(Oc2cnc(OC(C(F)(F)F)C(F)(F)F)c(Cl)c2)cc1F [Example 37] |
| 180 | CC(C)Oc1ncc(Oc2cc(F)c(C(=O)NS(=O)(=O)N3CCC3)cc2F)cc1Cl [Example 38, N-(azetidin-1-ylsulfonyl)-4-(5-chloro-6-isopropoxypyridin-3-yl)oxy)-2,5-difluorobenzamide diethylamine salt] |
| 100 | O=C(NS(=O)(=O)N1CCC1)c1cc(Cl)c(Oc2ccc(Cl)c(Cl)c2)cc1F [Example 42, N-(azetidin-1-ylsulfonyl)-5-chloro-4-(3,4-dichlorophenoxy)-2-fluorobenzamide] |

| SMILES | IC50 [nM] |
| --- | --- |
| O=C(NS(=O)(=O)N1CCC1)c1cc(Cl)c(Oc2cnc(OCC(F)(F)C(F)F)c(Cl)c2)cc1F [Example 41, N-(azetidin-1-ylsulfonyl)-5-chloro-4-{[5-chloro-6-(2,2,3,3-tetrafluoropropoxy)pyridin-3-yl]oxy}-2-fluorobenzamide] | 100 |
